Experimental data taken from patent publication US20050208139A1 (Ascend Therapeutics, Inc., priority 2004, published 2005).

Legend:
[1] = system: human breast tumors grown subcutaneously in mice; conditions: transdermally delivered; cited from earlier work
[2] = cited from earlier work
[3] = in vivo; cited from earlier work
[4] = Isomerization of 4-hydroxy tamoxifen in hydroalcoholic solutions at 25°, 30° and 40° C., Z/E isomers by HPLC (Example 1); format: physicochemical
Protocol: Hydroalcoholic solutions containing 4-hydroxy tamoxifen were prepared, based on the following gel formula: […]
In the hydroalcoholic solutions, phosphate buffer was substituted for Klucel. The composition of the buffer was as follows:
At each of the stated concentrations, separate solutions containing Z-4-hydroxy tamoxifen or a mixture of Z- and E-4-hydroxy tamoxifen were prepared.
Each solution was subdivided into three parts in 30 ml brown glass bottles, then placed in ovens regulated at 25°, 30°, and 40° C.
The relative amounts of Z- and E-4-hydroxy tamoxifen isomers were determined at the initiation of the study and at 2-week, 1-month, 2-month, 3-month, 4-month and 5-month time points.
Operating parameters for the HPLC were as follows:
The order of elution was as follows: • 4-OHT E: retention time about 13.3 min • 4-OHT Z: retention time about 15.0 min.
Percentages of each isomer were calculated using the following formulas: [formula] [formula] D. Data fitting:
The reversible isomerization reaction and the equilibrium reaches are lied by the following relationship: [formula] where • A0=initial concentration of the reagent • Aeq=concentration of the same reagent at equilibrium • A=the concentration of A at time t • kf=forward rate constant • kr=reverse rate constant • t=time measured in months
A plot of log [formula] as a function of time gives a straight line fit with a slope of [formula] and a y-intercept of 0. E. Results

[5] = Effects of pH on isomerization at 40° C. (Example 5); format: physicochemical
[6] = Initial E/Z 37/63, Buffer pH 2.2, Final pH 4, Day
[7] = Initial E/Z 37/63, Buffer pH 2.2, Final pH 4, Day 8
[8] = Initial E/Z 37/63, Buffer pH 2.2, Final pH 4, Mo. 1
[9] = Initial E/Z 37/63, Buffer pH 2.2, Final pH 4, Mo. 2
[10] = Initial E/Z 37/63, Buffer pH 2.2, Final pH 4, Mo. 3
[11] = Initial E/Z 37/63, Buffer pH 4, Final pH 6, Day
[12] = Initial E/Z 37/63, Buffer pH 4, Final pH 6, Day 8
[13] = Initial E/Z 37/63, Buffer pH 4, Final pH 6, Mo. 1
[14] = Initial E/Z 37/63, Buffer pH 4, Final pH 6, Mo. 2
[15] = Initial E/Z 37/63, Buffer pH 4, Final pH 6, Mo. 3
[16] = Initial E/Z 37/63, Buffer pH 4, Final pH 6, Time 0
[17] = Initial E/Z 37/63, Buffer pH 6, Final pH 7, Day
[18] = Initial E/Z 37/63, Buffer pH 6, Final pH 7, Day 8
[19] = Initial E/Z 37/63, Buffer pH 6, Final pH 7, Mo. 1
[20] = Initial E/Z 37/63, Buffer pH 6, Final pH 7, Mo. 2
[21] = Initial E/Z 37/63, Buffer pH 6, Final pH 7, Mo. 3
[22] = Initial E/Z 37/63, Buffer pH 6, Final pH 7, Time 0
[23] = Initial E/Z 37/63, Buffer pH 8, Final pH 9, Day
[24] = Initial E/Z 37/63, Buffer pH 8, Final pH 9, Day 8
[25] = Initial E/Z 37/63, Buffer pH 8, Final pH 9, Mo. 1
[26] = Initial E/Z 37/63, Buffer pH 8, Final pH 9, Mo. 2
[27] = Initial E/Z 37/63, Buffer pH 8, Final pH 9, Mo. 3
[28] = Initial E/Z 37/63, Buffer pH 8, Final pH 9, Time 0
[29] = Initial E/Z 37/63, Buffer pH 10, Final pH 12, Day
[30] = Initial E/Z 37/63, Buffer pH 10, Final pH 12, Day 8
[31] = Initial E/Z 37/63, Buffer pH 10, Final pH 12, Mo. 1
[32] = Initial E/Z 37/63, Buffer pH 10, Final pH 12, Mo. 2
[33] = Initial E/Z 37/63, Buffer pH 10, Final pH 12, Mo. 3
[34] = Initial E/Z 37/63, Buffer pH 10, Final pH 12, Time 0
[35] = Initial E/Z 100/0, Buffer pH 2.2, Final pH 4, Day
[36] = Initial E/Z 100/0, Buffer pH 2.2, Final pH 4, Day 8
[37] = Initial E/Z 100/0, Buffer pH 2.2, Final pH 4, Mo. 1
[38] = Initial E/Z 100/0, Buffer pH 2.2, Final pH 4, Mo. 2
[39] = Initial E/Z 100/0, Buffer pH 2.2, Final pH 4, Mo. 3
[40] = Initial E/Z 100/0, Buffer pH 4, Final pH 6, Day
[41] = Initial E/Z 100/0, Buffer pH 4, Final pH 6, Day 8
[42] = Initial E/Z 100/0, Buffer pH 4, Final pH 6, Mo. 1
[43] = Initial E/Z 100/0, Buffer pH 4, Final pH 6, Mo. 2
[44] = Initial E/Z 100/0, Buffer pH 4, Final pH 6, Mo. 3
[45] = Initial E/Z 100/0, Buffer pH 4, Final pH 6, Time 0
[46] = Initial E/Z 100/0, Buffer pH 6, Final pH 7, Day
[47] = Initial E/Z 100/0, Buffer pH 6, Final pH 7, Day 8
[48] = Initial E/Z 100/0, Buffer pH 6, Final pH 7, Mo. 1
[49] = Initial E/Z 100/0, Buffer pH 6, Final pH 7, Mo. 2
[50] = Initial E/Z 100/0, Buffer pH 6, Final pH 7, Mo. 3
[51] = Initial E/Z 100/0, Buffer pH 6, Final pH 7, Time 0
[52] = Initial E/Z 100/0, Buffer pH 8, Final pH 9, Day
[53] = Initial E/Z 100/0, Buffer pH 8, Final pH 9, Day 8
[54] = Initial E/Z 100/0, Buffer pH 8, Final pH 9, Mo. 1
[55] = Initial E/Z 100/0, Buffer pH 8, Final pH 9, Mo. 2
[56] = Initial E/Z 100/0, Buffer pH 8, Final pH 9, Mo. 3
[57] = Initial E/Z 100/0, Buffer pH 8, Final pH 9, Time 0
[58] = Initial E/Z 100/0, Buffer pH 10, Final pH 12, Day
[59] = Initial E/Z 100/0, Buffer pH 10, Final pH 12, Day 8
[60] = Initial E/Z 100/0, Buffer pH 10, Final pH 12, Mo. 1
[61] = Initial E/Z 100/0, Buffer pH 10, Final pH 12, Mo. 2
[62] = Initial E/Z 100/0, Buffer pH 10, Final pH 12, Mo. 3
[63] = Initial E/Z 100/0, Buffer pH 10, Final pH 12, Time 0

CCC(=C(c1ccc(O)cc1)c1ccc(OCCN(C)C)cc1)c1ccccc1 [4-hydroxy tamoxifen, 1-[4-(2-N-dimethylaminoethoxy)phenyl]-1-(4-hydroxyphenyl)-2-phenylbut-1-ene]
anti-tumor effect [1]: exhibits an anti-tumor effect | extent of isomerization ([2]; Katzenellenbogen et al., isomers initially 99% pure, after 2 days in tissue culture medium at 37° C.): 20% | time within which spontaneous isomerization of Z- into E-4-hydroxy tamoxifen occurred ([2]; Malet et al.): 24-48 h | distribution after percutaneous administration [3]: can concentrate in local breast tumors, with very little systemic distribution | magnitude of the rate constants for the reversible isomerism as nominal concentration varied from 0.02% to 0.10% [4]: increased linearly | effect of pH on the equilibration process [5]: Low and high pH speed the equilibration process | % E [5, 6]: 48.5% | % Z [5, 6]: 51.5% | % E [5, 7]: 52.5% | % Z [5, 7]: 47.5% | % E [5, 8]: 48.2% | % Z [5, 8]: 51.8% | % E [5, 9]: 48.0% | % Z [5, 9]: 52.0% | % E [5, 10]: 48.0% | % Z [5, 10]: 52.0% | % Z ([5]; Initial E/Z 37/63, Buffer pH 2.2, Final pH 4, Time 0): 37.1% | % E [5, 11]: 51.0% | % Z [5, 11]: 49.0% | % E [5, 12]: 56.8% | % Z [5, 12]: 43.2% | % E [5, 13]: 49.4% | % Z [5, 13]: 50.6% | % E [5, 14]: 49.0% | % Z [5, 14]: 51.0% | % E [5, 15]: 48.5% | % Z [5, 15]: 51.5% | % E [5, 16]: 62.9% | % Z [5, 16]: 37.1% | % E [5, 17]: 58.0% | % Z [5, 17]: 42.0% | % E [5, 18]: 61.1% | % Z [5, 18]: 38.9% | % E [5, 19]: 55.8% | % Z [5, 19]: 44.2% | % E [5, 20]: 52.0% | % Z [5, 20]: 48.0% | % E [5, 21]: 50.4% | % Z [5, 21]: 49.6% | % E [5, 22]: 62.5% | % Z [5, 22]: 37.5% | % E [5, 23]: 56.9% | % Z [5, 23]: 43.1% | % E [5, 24]: 60.6% | % Z [5, 24]: 39.4% | % E [5, 25]: 54.2% | % Z [5, 25]: 45.8% | % E [5, 26]: 50.8% | % Z [5, 26]: 49.2% | % E [5, 27]: 49.9% | % Z [5, 27]: 50.1% | % E [5, 28]: 62.7% | % Z [5, 28]: 37.3% | % E [5, 29]: 49.0% | % Z [5, 29]: 51.0% | % E [5, 30]: 48.5% | % Z [5, 30]: 51.5% | % E [5, 31]: 49.0% | % Z [5, 31]: 51.0% | % E [5, 32]: 48.8% | % Z [5, 32]: 51.2% | % E [5, 33]: 49.0% | % Z [5, 33]: 51.0% | % E [5, 34]: 63.4% | % Z [5, 34]: 36.6% | % E [5, 35]: 45.9% | % Z [5, 35]: 54.1% | % E [5, 36]: 29.0% | % Z [5, 36]: 71.0% | % E [5, 37]: 47.4% | % Z [5, 37]: 52.6% | % E [5, 38]: 48.0% | % Z [5, 38]: 52.0% | % E [5, 39]: 47.7% | % Z [5, 39]: 52.3% | % Z ([5]; Initial E/Z 100/0, Buffer pH 2.2, Final pH 4, Time 0): 100.0% | % E [5, 40]: 34.3% | % Z [5, 40]: 65.7% | % E [5, 41]: 12.5% | % Z [5, 41]: 87.5% | % E [5, 42]: 43.2% | % Z [5, 42]: 56.8% | % E [5, 43]: 48.1% | % Z [5, 43]: 51.9% | % E [5, 44]: 48.5% | % Z [5, 44]: 51.5% | % E [5, 45]: 0.0% | % Z [5, 45]: 100.0% | % E [5, 46]: 9.6% | % Z [5, 46]: 90.4% | % E [5, 47]: 2.9% | % Z [5, 47]: 97.1% | % E [5, 48]: 16.6% | % Z [5, 48]: 83.4% | % E [5, 49]: 31.3% | % Z [5, 49]: 68.6% | % E [5, 50]: 40.8% | % Z [5, 50]: 59.2% | % E [5, 51]: 0.0% | % Z [5, 51]: 100.0% | % E [5, 52]: 11.6% | % Z [5, 52]: 88.4% | % E [5, 53]: 3.4% | % Z [5, 53]: 96.6% | % E [5, 54]: 20.6% | % Z [5, 54]: 79.4% | % E [5, 55]: 36.4% | % Z [5, 55]: 63.6% | % E [5, 56]: 44.1% | % Z [5, 56]: 55.9% | % E [5, 57]: 0.0% | % Z [5, 57]: 100.0% | % E [5, 58]: 48.8% | % Z [5, 58]: 51.2% | % E [5, 59]: 48.3% | % Z [5, 59]: 51.7% | % E [5, 60]: 48.8% | % Z [5, 60]: 51.2% | % E [5, 61]: 48.8% | % Z [5, 61]: 51.2% | % E [5, 62]: 48.9% | % Z [5, 62]: 51.1% | % E [5, 63]: 0.0% | % Z [5, 63]: 100.0% | % E ([5]; Initial E/Z ratios of 37/63, Buffer pH 2.2, Final pH 4, Time 0): 62.9% | % E ([5]; Initial E/Z ratios of 100/0, Buffer pH 2.2, Final pH 4, Time 0): 0.0%
